US10233180B2, “Substituted nitrogen-containing heterocyclic derivatives, pharmaceutical compositions comprising the same and applications of antitumor thereof” (ZHEJIANG UNIVERSITY, priority 2014, dated 2019)

Key:
[1] = system: Human ovarian cancer cell strain OVCAR-8; experiment: MTT assay, inhibition of tumor cell growth in vitro, 72 h; format: cell-based; details: Homo sapiens, OVCAR-8, MTT, read-out: Antitumor proliferative activities of tumor cell (IC50, μM) OVCAR-8
Procedure: (§1) First, inhibitory activity on tumor proliferation in vitro is determined and the structure activity relationship is preliminarily studied, in which different solid tumor cell strains are selected for determining the antitumor activities in vitro of the synthesized compounds.
(§2) Cell strains: Human ovarian cancer cell strain (OVCAR8), colon adenocarcinoma cell strain (HCT-116)
Medium: OVCAR8: RPMI 1640+Fetal Bovine Serum
(§3) Preparing method of medicines: Dissolving the medicine in DMSO to make a 50 mM stock solution, and diluting it according to a certain ratio to obtain 5 different concentrations.
(§4) Two selected tumor cells OVCAR8 and HCT-116 are incubated at 37° C. in a 5% CO2 incubator, which are subcultured when cells grow up to a density of 70˜90% (adherent cells are subcultured after digesting by Duck's EDTA) for later experiments.
(§5) Compounds are dissolved and diluted by dimethyl sulfoxide (DMSO), and tumor cells OVCAR8 and HCT-116 are seeded in a 96-well plate at a density of 4000 cells/200 μl/well, 1 μl of the compounds are added to each well with the final concentration of 50 μM, 10 μM, 2 μM, 0.4 μM and 0.08 μM, which is incubated for 72 h at 37° C. in a 5% CO2 incubator with DMSO (1%) as blank control.
(§6) The calculating formula of cell inhibitory rate is: cell inhibitory rate %=(the OD value of the control group−the OD value of the medication group)/the OD value of the control group×100%, the half maximal inhibitory concentration (IC50) is obtained by Bliss method.

[2] = system: human colon cancer cell strain HCT-116; experiment: as above; format: cell-based; details: Homo sapiens, HCT-116, MTT, read-out: Antitumor proliferative activities of tumor cell (IC50, μM) HCT-116 (converted)
Procedure: as §1, §2
HCT-116: RPMI 1640+Fetal Bovine Serum
as §3, §4, §5, §6

Akt1 = target: T1, Akt1 (Homo sapiens, UniProt P31749); experiment: AKT1/PKBα KinEASE FP Fluorescein Green Assay (fluorescence polarization kinase kit); format: biochemical; details: 1 h reaction, read-out: Inhibitory activities against Akt1 (IC50)
T1 construct: purchased 32-021
T1 sequence (P31749 whole entry): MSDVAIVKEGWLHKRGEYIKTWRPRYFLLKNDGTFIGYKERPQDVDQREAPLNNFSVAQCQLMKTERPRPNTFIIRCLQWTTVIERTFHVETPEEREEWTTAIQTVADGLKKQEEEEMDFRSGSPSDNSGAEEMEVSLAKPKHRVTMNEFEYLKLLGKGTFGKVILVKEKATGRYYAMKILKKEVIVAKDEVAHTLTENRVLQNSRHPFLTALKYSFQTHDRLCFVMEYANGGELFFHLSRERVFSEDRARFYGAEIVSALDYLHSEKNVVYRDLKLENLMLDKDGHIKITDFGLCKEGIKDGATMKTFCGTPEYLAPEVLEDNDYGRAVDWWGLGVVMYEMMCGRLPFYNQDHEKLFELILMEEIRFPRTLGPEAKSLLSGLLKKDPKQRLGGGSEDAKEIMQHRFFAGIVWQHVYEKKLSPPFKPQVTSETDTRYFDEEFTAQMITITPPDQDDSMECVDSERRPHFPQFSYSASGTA
Procedure: Second, method for determining the inhibitory activities of substituted nitrogen-containing heterocyclic derivatives in the present invention against Akt1 enzyme:
The inhibitory activities of compounds against AKT1/PKBα are determined by using AKT1/PKBα KinEASE™ FP Fluorescein Green Assay (Green fluorescence detection system of Kinase).
Principle adopted by the fluorescence polarization detection of protein kinase B is a competitive reaction: the phosphorylated tracers labeled with fluorescence will compete with unlabeled phosphorylated products produced by reacting with protein kinase B to combine anti-serine antibodies. […] However, in the reaction mixture containing phosphorylated products, fewer tracers will combine with antibodies (fluorescent tracers are replaced from the antibodies), and signals sent our occur depolarizing. Therefore, the change of polarization is directly related to the activity of protein kinase B in the reaction.
Each of 0.25 μl of compounds with a concentration of 50 μM and the positive control are added to a 384-well plate at room temperature, and each sample is provided with three parallel wells, and then 10 μl of STK Substrate 3 Working Solution, 5 μl of AKT1/PKBα Working Solution, 10 μl of ATP Working Solution are added to each sample respectively, the mixtures are slightly vibrated and shaked for a few minutes. Reaction is carried out just after the adding 10 μl of ATP Working Solution, from this time, reacting for 1 h. After 1 h, 5 μl of STK Stop Mix and 5 μl of STK Antibody Mix are added to each sample respectively to stop the reaction. The samples are maintained for 4 h at room temperature after adding is completed, the polarization values of samples are determined by fluorescence polarization of Microplate Reader (Detection of the signals is valid within 24 h), the inhibitory rate of compounds against the enzyme is calculated by polarization value, and thereby IC50 is calculated.
Experiment is set up four control groups at the same time, which are Buffer Control Wells, Tracer Control Wells, No Enzyme Wells and blank control of dimethyl sulfoxide, respectively. Thus obtained data are used to calculate the inhibitory rate (the preparation methods of above various solution required for determining the activities of compounds against enzyme refer to the specification of the kit of AKT1/PKBα KinEASE™ FP Fluorescein Green Assay Catalog #32-021).

IC50 [1] | IC50 [2] | IC50 (Akt1) | Compound
24.3 µM | 3.04 µM | 323 nM | Cn1ncc(Cl)c1-c1cc(C(=O)N[C@H]2CNC[C@@H]2c2ccc(C(F)(F)F)cc2)oc1Cl (racemic) [Compound 69, 5-chloro-4-(4-chloro-1-methyl-1H-pyrazol-5-yl)-N-(3,4-trans-4-(4-trifluoromethylphenyl)pyrrolidin-3-yl)furan-2-formamide]
3.68 µM | 3.78 µM | 5 nM | CCc1sc(C(=O)N[C@H]2CNCC[C@@H]2c2cnc3c(c2)CCC(C)C3)cc1-c1c(C(C)C)cnn1C (stereo partly drawn) [Compound 14, 5-ethyl-4-(4-isopropyl-1-methyl-1H-pyrazol-5-yl)-N-(3,4-trans-4-(7-methyl-5,6,7,8-tetrahydroquinolin-3-yl)piperidin-3-yl)thiophene-2-formamide]
9.43 µM | 4.06 µM | 452 nM | Cn1ncc(Br)c1-c1csc(C(=O)N[C@H]2CNCC[C@@H]2c2ccc(F)c(F)c2)c1 [Compound 41, 4-(4-bromo-1-methyl-1H-pyrazol-5-yl)-N-((3R,4R)-4-(3,4-difluorophenyl)piperidin-3-yl)thiophene-2-formamide]

Continued, compound first:

Compound | IC50 [1] | IC50 [2] | IC50 (Akt1)
Cc1cnn(C)c1-c1cnc(C(=O)N[C@H]2CNC[C@@H]2c2ccc(F)c(F)c2)cc1F (racemic) [Compound 70, 4-fluoro-5-(1,4-dimethyl-1H-pyrazol-5-yl)-N-(3,4-trans-4-(3,4-difluorophenyl)pyrrolidin-3-yl)pyridinyl-2-formamide] | 2.69 µM | 10.3 µM | 87 nM
Cc1cnn(C)c1-c1cnc(C(=O)N[C@H]2CNC[C@@H]2c2ccc(C(F)(F)F)cc2)cc1F (racemic) [Compound 71, 4-fluoro-5-(1,4-dimethyl-1H-pyrazol-5-yl)-N-(3,4-trans-4-(4-trifluoromethylphenyl)pyrrolidin-3-yl)pyridinyl-2-formamide] | 2.61 µM | 11.1 µM | 116 nM
Cc1cc(-c2c(Cl)cnn2C)cc(C(=O)N[C@H]2CNCC[C@@H]2c2ccccc2)n1 (relative stereo) [Compound 45, 6-methyl-4-(4-chloro-1-methyl-1H-pyrazol-5-yl)-N-(3,4-trans-4-phenylpiperidin-3-yl)pyridinyl-2-formamide] | 2.01 µM | 12.6 µM | 812 nM
CC(Cl)c1ccc([C@H]2CCNC[C@@H]2NC(=O)c2cc(Cl)c(-c3ncnn3C)s2)cc1 (stereo partly drawn) [Compound 8, 4-chloro-5-(1-methyl-1H-1,2,4-triazol-5-yl)-N-(3,4-trans-4-(4-(1-chloroethyl)phenyl)piperidin-3-yl)thiophene-2-formamide] | 9.01 µM | 3.26 µM | 82 nM
CCc1c(-c2c(Cl)cnn2C)cc(C(=O)N[C@H]2CNCC[C@@H]2C2CCC(F)C2)n1C (stereo partly drawn) [Compound 15, 5-ethyl-1-methyl-4-(4-chloro-1-methyl-1H-pyrazol-5-yl)-N-(3,4-trans-4-(3-fluorocyclopentanyl)piperidin-3-yl)-1H-pyrrole-2-formamide] | 1.26 µM | 2.04 µM | 52 nM
Cc1c(C(=O)N[C@H]2CNCC[C@@H]2C2CCCC(Cl)C2)sc(Cl)c1-c1ncnn1C (stereo partly drawn) [Compound 18] | 5.69 µM | 1.83 µM | 18 nM
Cn1ncc(Cl)c1-c1cc(C(=O)N[C@H]2CNCC[C@@H]2c2ccc(Cl)c(Cl)c2)oc1Cl [Compound 39, 5-chloro-4-(4-chloro-1-methyl-1H-pyrazol-5-yl)-N-((3R,4R)-4-(3,4-dichlorophenyl)piperidin-3-yl)furan-2-formamide] | 14.3 µM | 3.45 µM | 58 nM
Cn1ncc(Cl)c1-c1cc(C(=O)N[C@@H]2CNCC[C@H]2c2ccc(Cl)c(Cl)c2)oc1Cl [Compound 40, 5-chloro-4-(4-chloro-1-methyl-1H-pyrazol-5-yl)-N-((3S,4S)-4-(3,4-dichlorophenyl)piperidin-3-yl)furan-2-formamide] | 1.69 µM | 1.56 µM | 118 nM
